According to US7485651B2, “Compounds with activity on muscarinic receptors” (Acadia Pharmaceuticals, Inc., priority 1998, dated 2009):

Assays:
m4 receptor = molecular target: T1, m4 receptor (Homo sapiens, UniProt P08173); assay: NIH 3T3 cells transfected with m4 muscarinic receptor and Gq-i5; type: cell-based
T1 construct: expressed in transfected cells; host or cells: NIH 3T3 (ATCC CRL 1658)
T1 sequence (P08173 1-479): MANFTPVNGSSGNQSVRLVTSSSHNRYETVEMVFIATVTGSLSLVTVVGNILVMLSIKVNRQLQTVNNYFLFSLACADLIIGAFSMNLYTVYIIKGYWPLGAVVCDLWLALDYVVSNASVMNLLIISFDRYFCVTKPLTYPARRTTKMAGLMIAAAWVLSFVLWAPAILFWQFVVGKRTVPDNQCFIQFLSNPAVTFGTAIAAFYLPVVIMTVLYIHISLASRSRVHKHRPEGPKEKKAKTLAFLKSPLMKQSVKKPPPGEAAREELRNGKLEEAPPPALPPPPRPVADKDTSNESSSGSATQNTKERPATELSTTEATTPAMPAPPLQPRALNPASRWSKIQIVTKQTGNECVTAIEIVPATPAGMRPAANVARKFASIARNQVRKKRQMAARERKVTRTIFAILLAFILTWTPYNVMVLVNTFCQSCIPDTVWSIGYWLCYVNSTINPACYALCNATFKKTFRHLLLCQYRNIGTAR
Method: Transfection of cells with muscarinic receptor DNAs (general procedure) NIH 3T3 cells (available from the American Type Culture Collection as ATCC CRL 1658) were grown at 37° C. in a humidified atmosphere (5% CO2) incubator in Dulbecco's modified Eagle's medium (DMEM) supplemented with 4.5 g/l glucose, 4 mM glutamine, 50 units/m1 penicillin, 50 units/m1 streptomycin (available from Advanced Biotechnologies, Inc., Gaithersburg, Md.) and 10% calf serum (available from Sigma, St. Louis, […].). The cells were treated with trypsin-EDTA, spun down and plated at 2×10^6 per 15 cm dish in 20 m1 of DMEM containing 10% calf serum.
The m1-m5 muscarinic receptor subtypes were cloned substantially as described by Bonner et al., Science 237, 1987, p. 527, and Bonner et al., Neuron 1, 1988, p. 403. For the m2 and m4 receptors, the cells were co-transfected with DNA encoding a chimera between the Gq protein and the five carboxy-terminal amino acids of the Gi protein (the Gq-i5 construct is described by Conklin et al., Nature 363, 1993, p.274).
On day one, the cells were transfected using the Superfect transfection reagent (available from Qiagen, Valencia, Calif.) in accordance with the manufacturer's instructions. […]

[1] = molecular target: T2, α-adrenergic receptor subtype 1D (Homo sapiens, UniProt P25100); assay: Test against other receptors: α-adrenergic 1D; type: cell-based
T2 sequence (P25100 1-572): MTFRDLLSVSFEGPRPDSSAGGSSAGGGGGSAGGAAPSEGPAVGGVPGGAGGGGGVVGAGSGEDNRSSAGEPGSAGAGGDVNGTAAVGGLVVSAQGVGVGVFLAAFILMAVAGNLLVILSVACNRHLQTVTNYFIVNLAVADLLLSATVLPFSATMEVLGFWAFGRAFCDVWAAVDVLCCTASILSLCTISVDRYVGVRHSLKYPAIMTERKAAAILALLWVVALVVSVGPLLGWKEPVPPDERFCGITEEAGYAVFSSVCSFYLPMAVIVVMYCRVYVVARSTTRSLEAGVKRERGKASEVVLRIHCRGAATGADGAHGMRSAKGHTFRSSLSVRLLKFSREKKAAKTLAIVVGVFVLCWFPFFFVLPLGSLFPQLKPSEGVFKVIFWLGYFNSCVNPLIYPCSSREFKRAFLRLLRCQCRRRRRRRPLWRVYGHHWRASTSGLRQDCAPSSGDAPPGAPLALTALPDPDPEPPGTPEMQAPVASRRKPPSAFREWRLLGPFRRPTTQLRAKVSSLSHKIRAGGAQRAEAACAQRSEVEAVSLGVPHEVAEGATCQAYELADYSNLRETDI

## CCCCC1CCN(CCCC(=O)c2ccccc2C)CC1 [Compound A, 4-n-Butyl-1-[4-(2-methylphenyl)-4-oxo-1-butyl]piperidine]
m4 receptor
  antagonism of carbachol-induced responses: not an antagonist
[1]
  agonist activity: no significant activity
